Reference: patent EP0723577B1, “DETERGENT COMPOSITIONS CONTAINING SILVER ANTI-TARNISHING AGENTS” (UNILEVER N.V., priority 1993, dated 1995)

Legend:
[1] = physchem; assay type: physicochemical
Experimental: As used herein, the term "pKa" means a pH value at which 50% of the heterocyclic ring moieties of the compound (particularly the five-membered rings in the case of the purine class compounds) are in ionic form.
The pH of this solution was adjusted to 3.0 with H2SO4. The solution was then titrated with 1N NaOH to pH 11.0. A plot of mls. NaOH vs. pH for each sample was prepared. The pKa of the compound is that point where the maximum change in pH as a function of mls. NaOH is observed.

[2] = Tarnish-monitoring experiments in a dishwasher with varied bleaching agent and mainwash pH, visual evaluation against the Example 1 reference scale; conditions: for reduction of tarnishing: pH 7.5 (peracetic acid 4.12%); for reduction in tarnishing: pH 10.5 (sodium hypochlorite 8.23%)
Experimental: (§1) Tarnishing-monitoring experiments were conducted, using samples A, B, C, D, E, and F at a product dosage of 40 grams per run in a Bauknecht GSF 3162 dishwasher, with an intake of 5 litres water. The mainwash pH values for compositions A and B were adjusted to 7.5; the mainwash pH values for compositions C and D were adjusted to 8.5. Two experiments (each) were conducted, using compositions E and F; the mainwash pH values were adjusted to 9.0 and 10.5, respectively. Silver-plated spoons, knives, and forks (supplied by Oneida Silversmiths, USA), were used as monitors for all experiments. The monitors were washed in a commercially available hand dishwashing liquid and rinsed with deionized water and acetone before use. At the end of the dishwashing machine program, the monitors were visually evaluated for the presence of colours and/or loss of shine, according to the reference scale described in Example 1.
as §1, with “Tarnish monitoring” for “Tarnishing-monitoring”, “conducted” for “conducted,”, “compositions” for “samples”, “D E” for “D, E,”, “available” for “available hand”
Tarnish monitoring experiments were conducted using compositions A, B, C, D, E and F at a product dosage of 40 grams per run in a Bauknecht GSF 3162 dishwasher, with an intake of 5 litres water. The mainwash pH values for compositions A and B were adjusted to 7.5; the mainwash pH values for compositions C and D were adjusted to 8.5. Two experiments (each) were conducted using compositions E and F; the mainwash pH values were adjusted to 9.0 and 10.5. respectively. Silver-plated spoons, knives and forks (supplied by Oneida Silversmiths, USA), were used as monitors for all experiments. The monitors were washed in a commercially available dishwashing liquid and rinsed with deionized water and acetone before use. At the end of the dishwashing machine program, the monitors were visually evaluated for the presence of colours and/or loss of shine, according to the reference scale described in Example 1.

[3] = Tarnish-monitoring experiments in a dishwasher, monitors visually ranked 0 to 6 against the Example 1 reference scale
Experimental: The wash program consisted of a pre-wash at 40°C, a mainwash at 55°C, two intermediate rinses, and a final rinse at 65°C.
The mainwash pH with these compositions was typically 8.7. Silver-plated spoons (2 per run) were the monitors used in the test. The spoons were supplied by Oneida Silversmiths, USA. The monitors were washed in a commercially available hand dishwash liquid and rinsed with deionized water and acetone before use. In the dishwasher the monitors were kept apart from each other in the cutlery basket. At the end of a single-run machine program, the monitors were visually analyzed for the presence of colours and the loss of gloss.
This ranking of spoons was used as a reference scale for all subsequent Examples.

[4] = Silver plates held in the compositions for 25 minutes, evaluated for tarnishing; conditions: 4 wt.% epsilon-phthalimido peroxyhexanoic acid
Experimental: A comparison of anti-tarnishing performance of purine class compounds within the scope of the invention and azole compounds outside the invention was conducted. The selected compounds were incorporated in an amount of 1 wt.% in a machine dishwashing composition containing 4 wt.% epsilon-phthalimido peroxyhexanoic acid as the bleaching agent. The pH values of the compositions were adjusted by the addition of a 50% solution of sodium hydroxide or concentrated sulfuric acid, as necessary.
(§2) Copper plates and silver plates were held in each of the compositions for 25 minutes, removed, rinsed with deionized water and evaluated for tarnishing. […]
A comparison of anti-tarnishing performance of 1,3-N azole compounds within the scope of the invention and azole compounds outside the invention was conducted. The selected compounds were incorporated in an amount of 1 wt.% in a machine dishwashing composition containing 4 wt.% epsilon-phthalimido peroxyhexanoic acid as the bleaching agent. The pH values of the compositions were adjusted by the addition of a 50% solution of sodium hydroxide or concentrated sulfuric acid, as necessary.
as §2

[5] = Example 11: 1,2,4-triazole 1.0%

Structure (SMILES): c1nc[nH]n1 [1,2,4-triazole]
- pKa of compounds ([1]; deionized water): 5.4
- reduction of tarnishing [2, 5]: 1.5 units of tarnishing
- reduction in tarnishing [2, 5]: 3.0 units
- level of tarnishing relative to the case where no anti-tarnishing agent was present ([2]; Example 11: 1,2,4-triazole 1.0%, peracetic acid, epsilon-phthalimidoperoxyhexanoic acid or sodium hypochlorite, pH 7.5 to 10.5): reduced the level of tarnishing
- level at which optimum performance was achieved ([3]; Example 12): 1 % by weight
- silver tarnishing, in words ([3]; Example 12, at amounts of 0.05 % by weight): effectively reduced silver tarnishing
- Effective Silver Anti-Tarnishing ([4]; Example 13: 1 wt.% compound, pH of composition 8.8): Yes (A tarnish score of 3 or less was considered effective as a silver anti-tarnishing compound)

Structure (SMILES): c1ncc2[nH]cnc2n1 [Purine]
- pKa [1]: 5.5
- level of tarnishing relative to the samples which did not contain purine ([2]; Example 4: purine 1.0%, peracetic acid pH 7.5, epsilon-phthalimidoperoxy hexanoic acid pH 8.5, sodium hypochlorite pH 9.0 and 10.5): greatest at pH values of 7.5, 8.5 and 9.0
- Effective Silver Anti-Tarnishing ([4]; Example 5: 1 wt.% compound, pH of composition 8.6): Yes (A tarnish score of 3 or less was considered effective as a silver anti-tarnishing compound)

Structure (SMILES): O=c1[nH]c(=O)[nH]c(=O)[nH]1 [cyanuric acid, 1,3,5-triazine-2,4,6(1H,3H,5H)-trione]
- reduction of tarnishing ([2]; Example 8: cyanuric acid 1.0%): 1.5 units of tarnishing
- reduction in tarnishing ([2]; Example 8: cyanuric acid 1.0%): 3.0 units
- level of tarnishing relative to the case where no anti-tarnish agent was present ([2]; Example 8: cyanuric acid 1.0%, peracetic acid, epsilon-phthalimidoperoxyhexanoic acid or sodium hypochlorite, pH 7.5 to 10.5): reduced the level of tarnishing
- level which gives optimum anti-tarnish performance ([3]; Example 9): about 1%
- appearance of the monitors ([3]; Example 9, cyanuric acid at a 2.5% level): slightly yellow appearance
